The experiment deals with T1, pyIRS/tRNA pair (Methanosarcina mazei, UniProt Q8PWY1).
T1 construct: expressed in transfected cells
In kind it is cell-based. The conditions noted are these: for GFP expression / incorporation in the GFP reporter (in words): GFP assay, HEK293 cells expressing pyIRS/tRNApyl and GFPY40, nnAA at 2 mM; for Positive GFP / Positive GFP Assay: HEK293 cells stably expressing pyIRS (3H7), tRNApyl + GFPY40 reporter, nnAA at 2 mM for 2-3 days; for Positive GFP: visual inspection under the microscope; for Positive GFP Assay: Formula VI analogs. An excerpt:
An in vitro cell based assay was developed to assess the compatibility of the pyIRS/tRNA pair and the pyrrolysine analogs of the present invention (nnAAs) by and the efficiency of nnAAs integration into a target protein. For this, HEK293 cells stably expressing pyIRS (3H7) were transiently transfected with plasmids for the expression of tRNApyl and a reporter construct encoding GFPY40 (containing amber codon in place of tyrosine at amino acid residue number 40 (where 1 is the initiator methionine)) using standard transfection protocols. Transfected cells were incubated with nnAAs at 2 mM for 2-3 days GFP production was analyzed qualitatively by visual inspection under the microscope. The GFP fluorescence was quantified by flow cytometry using an Accuri flow cytometer and the geometric mean of the fluorescent cells determined.
This cell based assay was used to determine whether the different nnAAs were suitable substrates for the pyIRS and allowed its translation into a target protein. Cells expressing the PyIRS/tRNApyl pair and containing a vector encoding the GFPY40 reporter gene were incubated in the presence of the nnAAs. nnAAs that are readily utilized by the PyIRS/tRNApyl pair support the translation of the nnAA into the amber site of GFP and allow read-through of the gene producing full length GFP (fluorescent protein). The fluorescence intensity of the cells depends on the efficiency of nnAA incorporation. Thus, nnAAs that are poorly utilized produce weakly fluorescent or non-fluorescing cells. […] Furthermore, the relative expression levels in each sample was compared to those generated by substrates known to be efficiently utilized by pyIRS.

SMILES strings stand for the structures. Read-outs that look alike come from different tables or passages of the source.

T1 sequence (Q8PWY1 whole entry): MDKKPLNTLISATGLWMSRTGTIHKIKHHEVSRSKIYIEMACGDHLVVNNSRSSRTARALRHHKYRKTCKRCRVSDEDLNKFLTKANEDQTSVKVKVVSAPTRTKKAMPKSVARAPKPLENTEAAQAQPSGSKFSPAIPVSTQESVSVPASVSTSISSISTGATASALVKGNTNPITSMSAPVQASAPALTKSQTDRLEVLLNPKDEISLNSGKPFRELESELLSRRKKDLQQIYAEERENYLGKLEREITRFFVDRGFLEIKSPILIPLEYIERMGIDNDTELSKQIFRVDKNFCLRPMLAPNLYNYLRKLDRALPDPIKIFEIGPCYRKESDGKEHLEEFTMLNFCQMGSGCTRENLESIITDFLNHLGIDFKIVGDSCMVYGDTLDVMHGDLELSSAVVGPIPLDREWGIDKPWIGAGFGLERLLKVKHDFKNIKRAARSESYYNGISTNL

As to `[N-]=[N+]=NCCOC(=O)NCCCC[C@H](N)C(=O)O` [Formula V.1, (2S)-2-amino-6-{[(2-azidoethoxy)carbonyl]amino}hexanoic acid], the “GFP expression / incorporation in the GFP reporter (in words)” value (from here on “GFP expression / incorporation”) is on record as “high levels of GFP expression” and the “Positive GFP” value is on record as “Yes”.
The corresponding values for `C#CCOC(=O)NCCCC[C@H](N)C(=O)O` [Formula V.2, (2S)-2-amino-6-{[(prop-2-yn-1-yloxy)carbonyl]amino}hexanoic acid] are “high levels of GFP expression” and “Yes”.
The corresponding values for `C=CCOC(=O)NCCCC[C@H](N)C(=O)O` [Formula V.3, (2S)-2-amino-6-{[(prop-2-en-1-yloxy)carbonyl]amino}hexanoic acid] are “high levels of GFP expression” and “Yes”.
For `[N-]=[N+]=NCCNC(=O)OCCCC[C@H](N)C(=O)O` [Formula VI.1, (2S)-2-amino-6-{[(2-azidoethyl)carbamoyl]oxy}hexanoic acid], the “GFP expression / incorporation” value is on record as “high levels of GFP expression” and the “Positive GFP Assay” value was “Yes”. Where the note is “listed as VI.1”, the “GFP expression / incorporation” value was “yield green cells”.
Turning to `C=CCNC(=O)OCCCC[C@H](N)C(=O)O` [Formula VI.3, (2S)-2-amino-6-{[(prop-2-en-1-yl)carbamoyl]oxy}hexanoic acid], the “GFP expression / incorporation” value is recorded as “yield green cells” and the “Positive GFP Assay” value is recorded as “Yes”.

The record behind these values is patent publication US9670521B2, “Amino acid derivatives” (priority 2012, dated 2017).
